Patent US9845310B2 (priority 2015, dated 2017)
“And” between values parts separate entries of the source, which are not always exact repeats. Identical values can stand only once. Like-named read-outs stand apart in the source and are kept apart here.

Experiments:
heart failure rat model [1] = assay type: in vivo; settings: for cardiac contractility as measured by dP/dtmax (derivative of left ventricular pressure): male Lewis rats, heart failure by permanent ligation of left descending coronary artery, ejection fraction <35%, dosed acutely for 30 min
Experimental: Male Lewis rats (Charles River, USA) at 2-3 months of age were used for the study. […] APJ agonists were administered dose dependently acutely for a period of 30 min.

[2] = test system: naive Sprague Dawley rat hearts; settings: for left ventricular dP/dtmax (load independent cardiac contractility) / left ventricular dP/dtmin (load independent cardiac relaxation): ex vivo naive Sprague Dawley rat hearts, Langendorff apparatus, as a function of concentration
heart failure rat model [3] = settings: captopril alone, acute settings, heart failure rats in vivo
[4] = molecular target: human APJ and the AT1R receptor (Homo sapiens (Human), UniProt P30556+P35414); assay: IP1 TR-FRET assay of AngII response with or without APJ agonists in double stable CHO-K1 APJ/AT1R cells; assay type: cell-based; settings: in the presence of AngII; losartan added
Experimental: Single and double stable recombinant cell lines were generated for human APJ and the AT1R receptor in CHO K1 cells tagged either with FLAG or hemagglutinin (HA) tag. Briefly, the CHO-K1 APJ/AT1R cells were seeded in culture medium of DMEM-F12 and 10% FBS at a density of 15 k/well in a 96 well plate overnight. The next day, the culture medium was replaced with medium containing no serum for 4 hours. The compound AngII at a range of concentrations (1 pM-10 μM) with or without different concentrations of APJ agonists were diluted in stimulation buffer and added to the cell plate. The plate was sealed and incubated for 1 hour. This was followed by addition of IP-d2 conjugate followed by europium cryptate antibody conjugate into the wells. The plate was sealed, followed with incubation for 2 hours at room temperature. Time-resolved fluorescence resonance energy (TR-FRET) at 620 nm and 665 nm was measured after 2 hours with an Envision reader. The signal ratios and delta F were calculated and the amount of IP1 produced was inversely proportional to the TR-FRET ratio, 665/620 nm.

[5] = test system: isolated perfused rat hearts; assay: Ex vivo isolated perfused rat heart (Langendorff) assay, load independent inotropic and lusitropic effects; settings: ARB losartan together with APJ agonist
APJ = APJ (Homo sapiens (Human), UniProt P35414); settings: 2003 study, Medhurst et al.; cited from earlier work
[6] = molecular target: human AT1R receptor expressed in the CHO cell line (Homo sapiens (Human), UniProt P30556); settings: different concentrations of AngII with fixed concentration of pyr apelin-13; human AT1R expressed alone in CHO cells
Experimental: The function of the inositol phosphate accumulation (IP1) was measured by Time-resolved fluorescence resonance energy (TR-FRET) at 620 nm and 665 nm respectively.

[7] = in vivo heart failure (MI) rat, acute administration for 30 min
[8] = ex vivo isolated perfused rat heart, contractility, percent change over vehicle
[9] = ex vivo isolated perfused rat heart, relaxation (lusitropic), percent change over vehicle

Sequence of APJ (P35414 whole entry): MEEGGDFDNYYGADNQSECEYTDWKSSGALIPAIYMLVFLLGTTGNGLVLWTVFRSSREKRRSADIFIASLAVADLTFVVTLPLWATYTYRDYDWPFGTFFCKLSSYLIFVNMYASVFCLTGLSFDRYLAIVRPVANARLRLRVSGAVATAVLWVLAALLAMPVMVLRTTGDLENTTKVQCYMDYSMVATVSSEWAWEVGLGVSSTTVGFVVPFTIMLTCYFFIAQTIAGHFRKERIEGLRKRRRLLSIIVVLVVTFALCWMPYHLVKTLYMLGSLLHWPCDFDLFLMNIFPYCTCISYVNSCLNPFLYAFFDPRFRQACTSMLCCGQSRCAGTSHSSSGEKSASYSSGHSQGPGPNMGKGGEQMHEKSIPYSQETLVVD
Sequence of human APJ and the AT1R receptor (P35414 whole entry, looked up, the tested form may be a part): as the sequence (P35414 whole entry) above
Sequence of human APJ and the AT1R receptor (P30556 whole entry, looked up, the tested form may be a part): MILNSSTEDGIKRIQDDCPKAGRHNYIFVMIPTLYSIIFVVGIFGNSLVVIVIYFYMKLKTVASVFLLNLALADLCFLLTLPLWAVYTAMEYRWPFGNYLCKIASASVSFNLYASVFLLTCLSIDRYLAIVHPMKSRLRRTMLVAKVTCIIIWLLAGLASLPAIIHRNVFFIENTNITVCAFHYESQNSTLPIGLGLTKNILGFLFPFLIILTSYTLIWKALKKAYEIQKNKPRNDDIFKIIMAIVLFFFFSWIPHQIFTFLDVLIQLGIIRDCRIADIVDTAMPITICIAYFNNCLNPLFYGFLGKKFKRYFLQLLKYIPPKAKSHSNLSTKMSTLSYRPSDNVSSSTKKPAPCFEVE
Sequence of human AT1R receptor expressed in the CHO cell line (P30556 whole entry): as the sequence (P30556 whole entry, looked up, the tested form may be a part) above

| Molecule | MI Rat Model dP/dtmax(%) (heart failure rat model [1]; [7]) | Isolated Heart Assay dP/dtmax(%) [2, 8] | Isolated Heart Assay dP/dtmin(%) [2, 9] | further results |
| --- | --- | --- | --- | --- |
| COc1cccc(OC)c1-n1c(NS(=O)(=O)[C@H](C)[C@@H](C)c2ncc(Cl)cn2)nnc1-c1cccnc1 (racemic) [Example 694.0, (2R,3S)-3-(5-chloropyrimidin-2-yl)-N-(4-(2,6-dimethoxyphenyl)-5-(pyridin-3-yl)-4H-1,2,4-triazol-3-yl)butane-2-sulfonamide or (2S,3R)-3-(5-chloropyrimidin-2-yl)-N-(4-(2,6-dimethoxyphenyl)-5-(pyridin-3-yl)-4H-1,2,4-triazol-3-yl)butane-2-sulfonamide] | 8% | 18.0% | 32.0% |  |
| CCO[C@H](c1ncc(C)cn1)[C@H](C)S(=O)(=O)Nc1nnc(-c2cccnc2)n1-c1c(OC)cccc1OC (single isomer, unassigned) [Example 109.0] |  |  |  | cardiac contractility as measured by dP/dtmax (derivative of left ventricular pressure) (heart failure rat model [1]): increase in cardiac contractility; MI Rat Model dP/dtmax(%) (heart failure rat model [1]; rat, in vivo): 20%; Isolated Heart Assay dP/dtmax(%) [2]: 15%; Isolated Heart Assay dP/dtmin(%) [2]: 25%; left ventricular dP/dtmax (load independent cardiac contractility) [2]: increases load independent cardiac contractility; left ventricular dP/dtmin (load independent cardiac relaxation) [2]: increases load independent cardiac relaxation |
| COc1cccc(OC)c1-n1c(NS(=O)(=O)[C@H](C)[C@@H](OC)c2ncc(Cl)cn2)nnc1-c1cncc(C)c1 (single isomer, unassigned) [Example 557.0] | No effect | 17.0% | 20.0% |  |
| COc1cccc(OC)c1-n1c(NS(=O)(=O)[C@@H](C)[C@@H](OC(C)C)c2ncc(C)cn2)nnc1-c1cncc(C)c1 (stereo in doubt) [Example 91.0, (1S,2S)-N-(4-(2,6-dimethoxyphenyl)-5-(5-methylpyridin-3-yl)-4H-1,2,4-triazol-3-yl)-1-isopropoxy-1-(5-methylpyrimidin-2-yl)propane-2-sulfonamide] | 25% | 20.0% | 43.0% |  |
| COc1cccc(OC)c1-n1c(NS(=O)(=O)[C@@H](C)[C@H](OC(C)C)c2ncc(C)cn2)nnc1-c1cncc(C)c1 (stereo in doubt) [Example 93.0, (1R,2S)-N-(4-(2,6-dimethoxyphenyl)-5-(5-methylpyridin-3-yl)-4H-1,2,4-triazol-3-yl)-1-isopropoxy-1-(5-methylpyrimidin-2-yl)propane-2-sulfonamide] | 20% | 19.0% | 27.0% |  |
| C[C@H](CS)C(=O)N1CCC[C@H]1C(=O)O [Captopril, captopril] |  |  |  | contractility or ejection fraction (heart failure rat model [3]): does not show a marked improvement |
| COc1cccc(-c2nnc(NS(=O)(=O)[C@@H](C)[C@H](OC)c3ncc(C)cn3)n2-c2c(OC)cccc2OC)n1 [Example 27.0, (1R,2S)-N-(4-(2,6-dimethoxyphenyl)-5-(6-methoxypyridin-2-yl)-4H-1,2,4-triazol-3-yl)-1-methoxy-1-(5-methylpyrimidin-2-yl)propane-2-sulfonamide] | 20% | 26% | 20% | cardiac contractility as measured by dP/dtmax (derivative of left ventricular pressure) (heart failure rat model [1]): increase in cardiac contractility; left ventricular dP/dtmax (load independent cardiac contractility) [2]: increases load independent cardiac contractility; left ventricular dP/dtmin (load independent cardiac relaxation) [2]: increases load independent cardiac relaxation |
| COc1cccc(OC)c1-n1c(NS(=O)(=O)[C@@H](C)[C@H](O)c2ncc(C)cn2)nnc1-c1cccc(C)n1 [Example 99.0] | 30% and 31% | 18% and 19.7% | 30% and 31% |  |
| COc1cccc(OC)c1-n1c(NS(=O)(=O)[C@@H](C)[C@H](C)c2cnc(C)cn2)nnc1-c1cccnc1 [Example 198.0, (2S,3R)-N-(4-(2,6-dimethoxyphenyl)-5-(pyridin-3-yl)-4H-1,2,4-triazol-3-yl)-3-(5-methylpyrazin-2-yl)butane-2-sulfonamide] | 15% | 15.0% | 19.0% |  |
| COc1cccc(OC)c1-n1c(NS(=O)(=O)[C@@H](C)[C@H](OC)c2ncc(C)cn2)nnc1-c1cncc(C)c1 [Example 203.0, (1R,2S)-N-(4-(2,6-dimethoxyphenyl)-5-(5-methyl-3-pyridinyl)-4H-1,2,4-triazol-3-yl)-1-methoxy-1-(5-methyl-2-pyrimiidnyl)-2-propanesulfonamide] | 12% | No effect | No effect |  |
| COc1cccc(OC)c1-n1c(NS(=O)(=O)[C@@H](C)[C@H](C)c2ncc(C)cn2)nnc1-c1cccnc1 [Example 586.0, (2S,3R)-N-(4-(2,6-dimethoxyphenyl)-5-(3-pyridinyl)-4H-1,2,4-triazol-3-yl)-3-(5-methyl-2-pyrimidinyl)-2-butanesulfonamide] |  |  |  | cardiac contractility as measured by dP/dtmax (derivative of left ventricular pressure) (heart failure rat model [1]): increase in cardiac contractility; Isolated Heart Assay dP/dtmax(%) [2]: 15%; Isolated Heart Assay dP/dtmin(%) [2]: 21%; left ventricular dP/dtmax (load independent cardiac contractility) [2]: increases load independent cardiac contractility; left ventricular dP/dtmin (load independent cardiac relaxation) [2]: increases load independent cardiac relaxation |
| COc1ncnc(OC)c1-n1c(NS(=O)(=O)[C@@H](C)[C@H](OC)c2ncc(C)cn2)nnc1-c1ccccn1 [Example 628.0, (1R,2S)-N-(4-(4,6-dimethoxy-5-pyrimidinyl)-5-(2-pyridinyl)-4H-1,2,4-triazol-3-yl)-1-methoxy-1-(5-methyl-2-pyrimidinyl)-2-propanesulfonamide] |  |  |  | MI Rat Model dP/dtmax(%) (heart failure rat model [1]; rat, in vivo): 15%; Isolated Heart Assay dP/dtmax(%) [2]: 18.3%; Isolated Heart Assay dP/dtmin(%) [2]: 18.0% |
| COc1cccc(-c2nnc(NS(=O)(=O)[C@@H](C)[C@H](OC)c3ncc(C)cn3)n2-c2c(F)cccc2F)n1.O=C(O)C(F)(F)F [Example 684.0, (1R,2S)-N-(4-(2,6-difluorophenyl)-5-(6-methoxy-2-pyridinyl)-4H-1,2,4-triazol-3-yl)-1-methoxy-1-(5-methyl-2-pyrimidinyl)-2-propanesulfonamide] | 20% | 19.0% | 18.3% |  |
| CCCCc1nc(Cl)c(CO)n1Cc1ccc(-c2ccccc2-c2nn[nH]n2)cc1 [losartan] |  |  |  | APJ receptor signaling on blocking AT1R, in vivo studies (heart failure rat model [1]; ARB losartan together with APJ agonist): synergistic effects; effect on the positive cooperativity induced by APJ small molecule agonists [4]: relieved this cooperativity; APJ receptor signaling on blocking AT1R, ex-vivo studies [5]: synergistic effects |
| apelin-17 |  |  |  | in vitro activity compared among apelin-36, apelin-17 and apelin-13 (APJ): approximately equipotent |
| apelin-36 |  |  |  | in vitro activity compared among apelin-36, apelin-17 and apelin-13 (APJ): approximately equipotent |
| pyr apelin-13 |  |  |  | positive cooperativity (IP1 accumulation) [6]: no positive cooperativity observed |
